Source: US8383139B2 (Bayer CropScience AG, priority 2008, dated 2013)

Legend:
Puccinia triticina = Puccinia triticina test (wheat)/protective; type: in vivo; conditions: 192 h, 500 ppm active substance, protective, evaluation 8 days after inoculation, read-out: degree of effectiveness
Summary of the method: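 Protective test: young wheat plants sprayed with compound (in N,N-dimethylacetamide/emulsifier, diluted in water) at the stated rate, dried, then inoculated with Puccinia triticina spores; 48 h at 20 °C, 100% RH, then greenhouse ~20 °C, ~80% RH. Efficacy scored 8 days post-inoculation, 0% = untreated control, 100% = no infestation.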

Septoria tritici = Septoria tritici test (wheat)/protective; type: in vivo; conditions: Zymoseptoria tritici, 504 h, 500 ppm active substance, protective, evaluation 21 days after inoculation, read-out: degree of effectiveness
Summary of the method: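 Young wheat plants sprayed with compound in dimethylacetamide/emulsifier-water, then inoculated with S. tritici spores once dry. Kept 48 h at 20 °C/100% RH, 60 h at 15 °C/100% RH, then greenhouse ~15 °C/80% RH. Scored 21 days post-inoculation as % efficacy versus untreated control.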

Uromyces appendiculatus = assay: Uromyces test (beans)/protective; type: in vivo; conditions: 240 h, 100 ppm active substance, protective, evaluation 10 days after inoculation, read-out: degree of effectiveness
Summary of the method: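 Young bean plants were sprayed with compound (acetone/dimethylacetamide/emulsifier concentrate diluted in water), dried, then inoculated with U. appendiculatus spores. They were held 1 day at ~20 °C, 100% RH, then kept in a greenhouse at ~21 °C, ~90% RH. Efficacy was scored at 10 days post-inoculation (0% = control, 100% = no infestation).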

Alternaria solani = assay: Alternaria test (tomato)/protective; type: in vivo; conditions: 72 h, 100 ppm active substance, protective, evaluation 3 days after inoculation, read-out: degree of effectiveness
Phakopsora pachyrhizi = assay: Phakopsora test (soybean)/protective; type: in vivo; conditions: 264 h, 500 ppm active substance, protective, evaluation 11 days after inoculation, read-out: degree of effectiveness
Protocol: • Solvent: 28.5 parts by weight of acetone • Emulsifier: 1.5 parts by weight of polyoxyethylene alkylphenyl ether (polyoxy-ethylene (16) tristearylphenyl ether)
To prepare a suitable active substance composition, 1 part by weight of active substance is mixed with the given amounts of solvent and emulsifier and the concentrate is diluted to the desired concentration using water.
For the testing of protective effectiveness, young plants are sprayed with the active substance composition at the application rate given. One day after the spraying, the plants are sprayed with an aqueous suspension of spores of Phakopsora pachyrhizi. The plants remain in a greenhouse at 20° C. and 80% relative humidity.
Evaluation is carried out 11 days after the inoculation. In this connection, 0% means a degree of effectiveness corresponding to that of the control, while a degree of effectiveness of 100% means that no infestation is observed.

[1] = log P by HPLC on reversed-phase columns (C 18), EEC Directive 79/831 Annex V.A8; type: physicochemical; conditions: reversed-phase C18 HPLC column, pH 2.3, [a] HPLC, acid region pH 2.3, 0.1% aqueous phosphoric acid and acetonitrile; read-out: log p
Sphaerotheca fuliginea = assay: Sphaerotheca test (cucumber)/protective; type: in vivo; conditions: Podosphaera fuliginea, 168 h, 500 ppm active substance, protective, evaluation 7 days after inoculation, read-out: degree of effectiveness
Summary of the method: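 Young cucumber plants sprayed at the stated rate with active substance in DMF/alkylaryl polyglycol ether emulsifier diluted in water, then inoculated with Sphaerotheca fuliginea spores one day later. Kept in greenhouse at 70% relative humidity, 23° C.; scored 7 days post-inoculation as % efficacy (0% = untreated control, 100% = no infestation).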

| Structure (SMILES) | pest or weed control at 500 ppm (Puccinia triticina) | pest or weed control at 500 ppm (Septoria tritici) | pest or weed control at 100 ppm (Uromyces appendiculatus) | pest or weed control at 100 ppm (Alternaria solani) | pest or weed control at 500 ppm (Phakopsora pachyrhizi) | chromatographic logP [1] | pest or weed control at 500 ppm (Sphaerotheca fuliginea) |
| --- | --- | --- | --- | --- | --- | --- | --- |
| CCN(C)C=Nc1cc(C)c(Oc2nc(Cc3ccccc3OC)ns2)cc1C [Example 49, N-ethyl-N′-(4-{[3-(2-methoxybenzyl)-1,2,4-thiadiazol-5-yl]oxy}-2,5-dimethylphenyl)-N-methylimidoformamide] | ≥ 70% | ≥ 70% | ≥ 70% | ≥ 70% | ≥ 80% | 1.83 | ≥ 70% |
| CCN(C)C=Nc1cc(C)c(Oc2nc(Cc3ccc(F)cc3F)ns2)cc1C [Example 52, N′-(4-{[3-(2,4-difluorobenzyl)-1,2,4-thiadiazol-5-yl]oxy}-2,5-dimethylphenyl)-N-ethyl-N-methylimidoformamide] | ≥ 70% | ≥ 70% | ≥ 70% | ≥ 70% | ≥ 80% | 1.94 | ≥ 70% |
